Data as given in PMC9243336, “Santalol Isomers Inhibit Transthyretin Amyloidogenesis and Associated Pathologies in Caenorhabditis elegans” (Frontiers in Pharmacology, 2022).

Tests used:
[1] = biological target: T1, Transthyretin (TTR, prealbumin), wild type (Homo sapiens, UniProt P02766); assay: acid-induced (pH […] h) aggregation turbidity; urea denaturation by Trp fluorescence; type: biochemical
T1 construct: homotetramer; prealbumin from human plasma

Transthyretin (TTR) V30M = Transthyretin (TTR) V30M (Homo sapiens, UniProt P02766, V50M); assay: as above; type: biochemical

EC50 [1]	EC50 (Transthyretin (TTR) V30M)	SMILES
36.7 ± 1.2 µM	44.3 ± 3.5 µM	C/C(=C/CC[C@@]1(C)C2C[C@@H]3[C@H](C2)C31C)CO [α-santalol]
31.1 ± 2.4 µM	34.5 ± 2.8 µM	C=C1[C@@H]2CC[C@@H](C2)[C@@]1(C)CC/C=C(/C)CO [β-santalol]
